The EC50 is the concentration giving half of the maximal effect. A high value points to a less potent agent.

Molecules are shown by their SMILES. *1 amine or outer side, *2 acyl side, *3 side chain or, on linkers, in order; H or OH if unused. Where a SMILES comes first, the peptide text is derived from it. Side-chain parts run from the residue outwards. [ ]: non-standard residue; d: D form. The star is where a group is joined. C20 diacid = O=C(O)CCCCCCCCCCCCCCCCCCC(=O)*; C18 diacid = O=C(O)CCCCCCCCCCCCCCCCC(=O)*; γGlu = O=C(O)[C@H](CCC(=O)[*:2])N[*:1]; NMeI = CC[C@H](C)[C@H](NC)C(=O)O; Api = NC1(C(=O)O)CCNCC1; AEEA = NCCOCCOCC(=O)O; Aib = CC(C)(N)C(=O)O A value given as a limit tells only on which side of the number the result lay.

Experimental findings from patent publication US20260001928A1 (CORTERIA PHARMACEUTICALS, priority 2022, published 2026) are described below.

In one experiment the target is T1, CFR1R receptor (Homo sapiens, UniProt P34998).
T1 construct: host or cells: CHO-K1 (clone 2)
T1 sequence (P34998 24-415): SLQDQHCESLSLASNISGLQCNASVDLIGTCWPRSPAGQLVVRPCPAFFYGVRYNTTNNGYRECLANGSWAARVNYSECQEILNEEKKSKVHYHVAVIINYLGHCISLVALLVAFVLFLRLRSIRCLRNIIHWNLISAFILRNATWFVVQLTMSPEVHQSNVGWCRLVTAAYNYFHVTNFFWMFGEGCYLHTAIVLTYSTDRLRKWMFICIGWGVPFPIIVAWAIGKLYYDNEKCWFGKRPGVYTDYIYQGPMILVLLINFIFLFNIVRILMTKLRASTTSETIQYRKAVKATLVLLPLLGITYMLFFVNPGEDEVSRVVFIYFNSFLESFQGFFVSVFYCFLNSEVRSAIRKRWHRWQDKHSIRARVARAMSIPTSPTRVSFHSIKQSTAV
Put plainly: Activity at anti-target CFR1R receptor, cAMP assay in CRF1R-overexpression CHO-K1 cells. It is filed as cell-based. The conditions noted are these: 100% = Sauvagine at 100 nM. An outline of the steps:
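The method mirrors that used with TeloHAEC cells. Here, thawed clone 2 cells seeded at 4000 cells/well are tested, and 100 nM Sauvagine sets the top of the activation scale.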
In general terms: Cyclic AMP is a second messenger, typically raised through Gs and lowered through Gi signalling.

In another experiment the target is T2, human CRF2a receptor (Homo sapiens, UniProt Q13324).
T2 construct: expressed in transfected cells; host or cells: TeloHEAC cells
T2 sequence (Q13324 1-411): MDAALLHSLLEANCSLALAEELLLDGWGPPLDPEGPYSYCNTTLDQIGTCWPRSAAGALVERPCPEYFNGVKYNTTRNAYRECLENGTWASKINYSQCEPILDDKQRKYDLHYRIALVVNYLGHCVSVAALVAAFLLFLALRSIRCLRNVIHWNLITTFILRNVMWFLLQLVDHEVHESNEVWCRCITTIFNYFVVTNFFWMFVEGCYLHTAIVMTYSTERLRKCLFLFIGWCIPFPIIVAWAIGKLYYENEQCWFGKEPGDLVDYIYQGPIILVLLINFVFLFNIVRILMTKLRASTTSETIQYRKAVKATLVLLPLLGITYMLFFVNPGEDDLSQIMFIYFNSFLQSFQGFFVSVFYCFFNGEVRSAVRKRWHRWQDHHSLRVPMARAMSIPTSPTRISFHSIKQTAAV
Put plainly: Activity at human CRF2a receptor, cAMP functional assay in TeloHEAC cells. It is filed as cell-based. To be noted: TeloHEAC cells stably expressing human CRF2a receptor, relative to urocortin 2 (100 nM = 100%). The method in brief:
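TeloHEAC cells stably expressing human CRF2a (10000 cells/well) were treated with 16-point 1:2 compound dilutions in HBSS/20 mM HEPES with IBMX for 30 min at 37° C. cAMP was read by HTRF (665/620 nm ratio). EC50 was the concentration giving 50% activation, with 100 nM urocortin 2 set as 100%.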

`CC[C@H](C)[C@H](NC(C)=O)C(=O)N[C@H](C(=O)N[C@@H](CC(C)C)C(=O)N[C@@H](CO)C(=O)N[C@@H](CC(C)C)C(=O)N[C@@H](CC(=O)O)C(=O)N[C@@H](C(=O)N1CCC[C@H]1C(=O)N[C@H](C(=O)N[C@@H](CCCCN)C(=O)N[C@@H](CC(C)C)C(=O)N[C@@H](CCCCNC(=O)COCCOCCNC(=O)CC[C@H](NC(=O)CC[C@H](NC(=O)CCCCCCCCCCCCCCCCC(=O)O)C(=O)O)C(=O)O)C(=O)N[C@@H](CCCCN)C(=O)N[C@H](C(=O)N[C@@H](CC(C)C)C(=O)N[C@@H](CC(C)C)C(=O)N[C@@H](CCC(=O)O)C(=O)N[C@@H](CCC(N)=O)C(=O)N[C@@H](CCC(=O)O)C(=O)N[C@@H](CCCCN)C(=O)N[C@@H](CCC(N)=O)C(=O)N[C@@H](CCCCN)C(=O)N[C@@H](CCCCN)C(=O)N[C@@H](CCC(N)=O)C(=O)N[C@@H](CCCNC(=N)N)C(=O)N[C@@H](CCC(=O)O)C(=O)N[C@@H](CCC(N)=O)C(=O)N[C@@H](C)C(=O)N[C@@H](CCC(=O)O)C(=O)N[C@H](C(=O)N[C@@H](CC(N)=O)C(=O)NC(C)(C)C(=O)N[C@@H](CCC(N)=O)C(=O)N[C@H](C(=O)N[C@@H](CC(C)C)C(=O)N[C@@H](C)C(=O)N[C@@H](CCC(N)=O)C(=O)N[C@H](C(N)=O)C(C)C)[C@@H](C)CC)[C@@H](C)O)[C@@H](C)CC)[C@@H](C)CC)C(C)C)C(C)C` [compound 205] (Ac-IVLSLD[dV]PIKLK([AEEA-γGlu-γGlu-C18 diacid])KILLEQEKQKKQREQAETN[Aib]QILAQV-NH2): at CFR1R receptor, the “Emax (% I)” value was 1 % I. The EC50 at CFR1R receptor (cAMP) was more than 250000 pM; at human CRF2a receptor, 1430 pM.

For the molecule `CC[C@H](C)[C@H](NC(C)=O)C(=O)N[C@H](C(=O)N[C@@H](CC(C)C)C(=O)N[C@@H](CO)C(=O)N[C@@H](CC(C)C)C(=O)N[C@@H](CC(=O)O)C(=O)N[C@@H](C(=O)N1CCC[C@H]1C(=O)N[C@H](C(=O)N[C@@H](CCCCN)C(=O)N[C@@H](CC(C)C)C(=O)N[C@@H](CCCCNC(=O)CC[C@H](NC(=O)CCCCCCCCCCCCCCCCCCC(=O)O)C(=O)O)C(=O)N[C@@H](CCCCN)C(=O)N[C@H](C(=O)N[C@@H](CC(C)C)C(=O)N[C@@H](CC(C)C)C(=O)N[C@@H](CCC(=O)O)C(=O)N[C@@H](CCC(N)=O)C(=O)N[C@@H](CCC(=O)O)C(=O)N[C@@H](CCCCN)C(=O)N[C@@H](CCC(N)=O)C(=O)N[C@@H](CCCCN)C(=O)N[C@@H](CCCCN)C(=O)N[C@@H](CCC(N)=O)C(=O)N[C@@H](CCCNC(=N)N)C(=O)N[C@@H](CCC(=O)O)C(=O)N[C@@H](CCC(N)=O)C(=O)N[C@@H](C)C(=O)N[C@@H](CCC(=O)O)C(=O)N[C@H](C(=O)N[C@@H](CC(N)=O)C(=O)NC1(C(=O)N[C@@H](CCC(N)=O)C(=O)N[C@H](C(=O)N[C@@H](CC(C)C)C(=O)N[C@@H](C)C(=O)N[C@@H](CCC(N)=O)C(=O)N[C@H](C(N)=O)C(C)C)[C@@H](C)CC)CCNCC1)[C@@H](C)O)[C@@H](C)CC)[C@@H](C)CC)C(C)C)C(C)C` [compound 207] (Ac-IVLSLD[dV]PIKLK([γGlu-C20 diacid])KILLEQEKQKKQREQAETN[Api]QILAQV-NH2), the “Emax (% I)” value at CFR1R receptor was 65 % I. The EC50 on human CRF2a receptor stood at 120 pM.

With `CC[C@H](C)[C@H](NC(C)=O)C(=O)N[C@H](C(=O)N[C@@H](CC(C)C)C(=O)N[C@@H](CO)C(=O)N[C@@H](CC(C)C)C(=O)N[C@@H](CC(=O)O)C(=O)N[C@@H](C(=O)N1CCC[C@H]1C(=O)N[C@H](C(=O)N[C@@H](CCCCN)C(=O)N[C@@H](CC(C)C)C(=O)N[C@@H](CCCCNC(=O)CC[C@H](NC(=O)CCCCCCCCCCCCCCCCCCC(=O)O)C(=O)O)C(=O)N[C@@H](CCCCN)C(=O)N[C@H](C(=O)N[C@@H](CC(C)C)C(=O)N[C@@H](CC(C)C)C(=O)N[C@@H](CCC(=O)O)C(=O)N[C@@H](CCC(N)=O)C(=O)N[C@@H](CCC(=O)O)C(=O)N[C@@H](CCCCN)C(=O)N[C@@H](CCC(N)=O)C(=O)N[C@@H](CCCCN)C(=O)NC(C)(C)C(=O)N[C@@H](CCC(N)=O)C(=O)N[C@@H](CCCNC(=N)N)C(=O)N[C@@H](CCC(=O)O)C(=O)N[C@@H](CCC(N)=O)C(=O)N[C@@H](C)C(=O)N[C@@H](CCC(=O)O)C(=O)N[C@H](C(=O)N[C@@H](CC(N)=O)C(=O)NC1(C(=O)N[C@@H](CCC(N)=O)C(=O)N[C@H](C(=O)N[C@@H](CC(C)C)C(=O)N[C@@H](C)C(=O)N[C@@H](CCC(N)=O)C(=O)N[C@H](C(N)=O)C(C)C)[C@@H](C)CC)CCNCC1)[C@@H](C)O)[C@@H](C)CC)[C@@H](C)CC)C(C)C)C(C)C` [compound 208] (Ac-IVLSLD[dV]PIKLK([γGlu-C20 diacid])KILLEQEKQK[Aib]QREQAETN[Api]QILAQV-NH2), at CFR1R receptor, the “Emax (% I)” value was 63 % I. The same molecule gave an EC50 on human CRF2a receptor of 150 pM.

Consider `CC[C@H](C)[C@H](NC(C)=O)C(=O)N[C@H](C(=O)N[C@@H](CC(C)C)C(=O)N[C@@H](CO)C(=O)N[C@@H](CC(C)C)C(=O)N[C@@H](CC(=O)O)C(=O)N[C@@H](C(=O)N1CCC[C@H]1C(=O)N[C@H](C(=O)N[C@@H](CCCCN)C(=O)N[C@@H](CC(C)C)C(=O)N[C@@H](CCCCNC(=O)CC[C@H](NC(=O)CCCCCCCCCCCCCCCCCCC(=O)O)C(=O)O)C(=O)N[C@@H](CCCCN)C(=O)N[C@H](C(=O)N[C@@H](CC(C)C)C(=O)N[C@@H](CC(C)C)C(=O)N[C@@H](CCC(=O)O)C(=O)N[C@@H](CCC(N)=O)C(=O)N[C@@H](CCC(=O)O)C(=O)N[C@@H](C)C(=O)N[C@@H](CCC(N)=O)C(=O)N[C@@H](CCCCN)C(=O)N[C@@H](CCCCN)C(=O)N[C@@H](CCC(N)=O)C(=O)N[C@@H](CCCNC(=N)N)C(=O)N[C@@H](CCC(=O)O)C(=O)N[C@@H](CCC(N)=O)C(=O)N[C@@H](C)C(=O)N[C@@H](CCC(=O)O)C(=O)N[C@H](C(=O)N[C@@H](CC(N)=O)C(=O)NC(C)(C)C(=O)N[C@@H](CCC(N)=O)C(=O)N[C@H](C(=O)N[C@@H](CC(C)C)C(=O)N[C@@H](C)C(=O)N[C@@H](CCC(N)=O)C(=O)N[C@H](C(N)=O)C(C)C)[C@@H](C)CC)[C@@H](C)O)[C@@H](C)CC)[C@@H](C)CC)C(C)C)C(C)C` [compound 211] (Ac-IVLSLD[dV]PIKLK([γGlu-C20 diacid])KILLEQEAQKKQREQAETN[Aib]QILAQV-NH2), for which the “Emax (% I)” value at CFR1R receptor is 73 % I. Also, on human CRF2a receptor, the EC50 worked out at 150 pM.

In the case of `CC[C@H](C)[C@H](NC)C(=O)N[C@H](C(=O)N[C@@H](CC(C)C)C(=O)N[C@@H](CO)C(=O)N[C@@H](CC(C)C)C(=O)N[C@@H](CC(=O)O)C(=O)N[C@@H](C(=O)N1CCC[C@H]1C(=O)N[C@H](C(=O)N[C@@H](CCCCN)C(=O)N[C@@H](CC(C)C)C(=O)N[C@@H](CCCCNC(=O)CC[C@H](NC(=O)CCCCCCCCCCCCCCCCCCC(=O)O)C(=O)O)C(=O)N[C@@H](CCCCN)C(=O)N[C@H](C(=O)N[C@@H](CC(C)C)C(=O)N[C@@H](CC(C)C)C(=O)N[C@@H](CCC(=O)O)C(=O)N[C@@H](CCC(N)=O)C(=O)N[C@@H](CCC(=O)O)C(=O)N[C@@H](C)C(=O)N[C@@H](CCC(N)=O)C(=O)N[C@@H](CCCCN)C(=O)N[C@@H](CCCCN)C(=O)N[C@@H](CCC(N)=O)C(=O)N[C@@H](CCCNC(=N)N)C(=O)N[C@@H](CCC(=O)O)C(=O)N[C@@H](CCC(N)=O)C(=O)N[C@@H](C)C(=O)N[C@@H](CCC(=O)O)C(=O)N[C@H](C(=O)N[C@@H](CC(N)=O)C(=O)NC(C)(C)C(=O)N[C@@H](CCC(N)=O)C(=O)N[C@H](C(=O)N[C@@H](CC(C)C)C(=O)N[C@@H](C)C(=O)N[C@@H](CCC(N)=O)C(=O)N[C@H](C(N)=O)C(C)C)[C@@H](C)CC)[C@@H](C)O)[C@@H](C)CC)[C@@H](C)CC)C(C)C)C(C)C` [compound 216] (H-[NMeI]VLSLD[dV]PIKLK([γGlu-C20 diacid])KILLEQEAQKKQREQAETN[Aib]QILAQV-NH2), the “Emax (% I)” value at CFR1R receptor amounted to 61 % I. Also, the EC50 on human CRF2a receptor is 50 pM.
